According to patent US9014457B2, “Quantifying cell death” (UCL Business PLC, priority 2009, dated 2015):
“Also recorded” adds a separate entry of the source. Where two headings read alike, the source gives them in different places.

Experiments:
[1] = tested on: cortical neurons; conditions: cited from earlier work
[2] = in comparison to 360° laser trabeculoplasty; cited from earlier work
[3] = tested on: RGC; conditions: rat, in vivo; cited from earlier work
[4] = tested on: RGC apoptosis; assay: DARC in vivo imaging of OHT rat eyes, topical CoQ10; conditions: topical on Day 0, 1, 7, 21 & 42; at 3 & 6 weeks after elevated IOP; vs control
Source text: FIG. 14B DARC in vivo imaging of OHT rat eyes at 3 weeks after elevated intraocular pressure (IOP) showing increased RGC apoptosis (white spots) in Control (A) compared to CoQ10-treated (B) eyes.

[5] = tested on: Cyclophilin D; assay: Histological cross sections of retina stained for Cyclophilin D, OHT rat eyes; type: in vivo
[6] = in vivo; cited from earlier work
[7] = tested on: neuronal cells; conditions: cited from earlier work
[8] = tested on: retina autofluorescence (NADH, FAD); conditions: intravitreal administration
Source text: Detection of FCCP-induced retinal metabolic changes in vivo in a mouse eye.

[9] = tested on: ROS production in the retina; assay: ROS production in mouse retina in vivo visualized with DHE; conditions: intravitreal; vs vehicle/control eye
Protocol: FIG. 12B. The effects of rotenone on ROS production in mouse retina in vivo. ROS production visualized with DHE (dihydroethidium). DHE is a non-fluorescent agent, reacting with ROS intracellularly to produce a fluorescent oxidative product which can be detected. Rotenone (50 uM, 1 ul) was intravitreally injected into the one eye (C57) and the same volume of vehicle (saline) injected into the contralateral eye. DHE (1 ul) was then injected intravitreally and both eyes imaged to detect ROS production using a SLO machine.
FIG. 12C. The effects of PMA in producing ROS in mouse retina in vivo. PMA (50 ug/ml, 1 ul) was injected intravitreally into the one eye and saline (1 ul) into the contralateral eye. DHE (1 ul) was simultaneously injected for detecting ROS production.
FIG. 12D. The effects of Aβ25-35 on ROS production in vivo. DHE was intravitreally injected into the both eyes of a mouse to detect ROS production.

[10] = tested on: control cells; conditions: cited from earlier work
[11] = tested on: mitochondrial membrane potential in the retina; assay: Mitochondrial membrane potential (MMP) in mouse eye in vivo, Rho123 fluorescence
Protocol: FIG. 11B. Early investigations show the effects of intravitreal rotenone on mitochondrial membrane potential (MMP) in a mouse eye in vivo.
FIG. 11C. Using the same analysis, we looked at the effects of Aβ25-35 on MMP in vivo in a mouse eye. Rho123 is a fluorescent probe, used to detect the changes in mitochondrial fluorescent density. […] The dashed line in C represents baseline fluorescence before Rho123 was injected

[12] = tested on: RGC; conditions: previously established; cited from earlier work
[13] = tested on: RGC; assay: Staurosporine (SSP)-induced RGC apoptosis model, time-lapse in vivo imaging; set-up: species or system rat
Protocol: For analysis of staurosporine-induced RGC apoptosis, 14 DA rats received 0.5 μg of intravitreal staurosporine (SSP) in 5 μl phosphate-buffered saline (PBS); both Sigma Aldrich UK, to induce RGC apoptosis as previously described (Cordeiro et al., 2004). Animals were imaged immediately for up to 6 hours, after which they were killed for histology.
Using a method the inventors have recently described, rats were given 2.5 μg of intravitreal Alexa Fluor 488 labelled annexin V in 5 μl PBS for identification of RGC apoptosis, 2 hours before in vivo imaging (Cordeiro et al., 2004). For mice, the inventors used 1 μl of a 0.25 mg/ml solution of IR-labelled annexin (Annexin-IR) in intravitreal injections as previously described (Schmitz-Valckenberg et al., 2008). […]
All rats had in vivo retinal imaging performed at regular and set intervals after experimental treatment, using a prototype Zeiss confocal scanning laser ophthalmoscope (cSLO), as previously described (Cordeiro et al., 2004; Maass et al., 2007). […] Colour and raw scatter plots of annexin and PI fluorescence intensity were constructed, so data could be analysed in a similar manner to data derived by in vitro FACS analysis. […] Fluorescence intensity counts derived from raw scatter plots were used to quantify each phase of cell death. […]

[14] = tested on: cortical astrocytes; conditions: 1 mM glutamate or 10 mM methyl-succinate; cited from earlier work
[15] = tested on: RGC; assay: Abeta (Aβ25-35)-induced RGC death model, in vivo cSLO imaging with annexin V and PI; set-up: species or system mouse
Protocol: For the analysis of Abeta, freshly made Aβ25-35 (Sigma-Aldrich, 3.40 nmol) (Dahlgren et al., 2002) was intravitreally injected into C57 mice (n=10) (Maass et al., 2007). Animals were imaged at 72 hours. For AD 3× Tg-AD studies, 4 eyes (all female, 14 months) with 2 eyes from aged control mice (PS1KI; female, 18 months) were assessed. 3× Tg-AD and control PS1KI mice were obtained from a colony (maintained at CeSI) established after a generous gift of Frank Laferla. Intravitreal phorbol myristate acetate (1 μl of 10 μg/ml) was administered to left eyes of 3× Tg-AD animals, at the same time as annexin V and PI.
Using a method the inventors have recently described, rats were given 2.5 μg of intravitreal Alexa Fluor 488 labelled annexin V in 5 μl PBS for identification of RGC apoptosis, 2 hours before in vivo imaging (Cordeiro et al., 2004). For mice, the inventors used 1 μl of a 0.25 mg/ml solution of IR-labelled annexin (Annexin-IR) in intravitreal injections as previously described (Schmitz-Valckenberg et al., 2008).
In order to identify necrotic RGCs in rats (2 μl) and mice (1 μl), propidium iodide (PI; 0.4 mg/ml, 1% solution, Sigma-Aldrich, Dorset UK) was administered intravitreally at the same time as annexin, 2 hours before in vivo imaging. PI intercalates into nucleic acids, binding to double-stranded DNA, but only crosses the plasma membrane of non-viable cells. Cells that have lost membrane integrity are thus identified by fluorescent red PI staining throughout the nuclei.
In mice, the inventors used instrumentation as previously described (Maass et al., 2007; Schmitz-Valckenberg et al., 2008), with a modified cSLO (Heidelberg Retina Angiograph 2, Heidelberg Engineering, Dossenheim, Germany) and a wide-field lens (55°). The fluorescein angiogram (488 nm argon laser) and indocyanine green (IR 790 nm diode laser) settings were used to detect PI and IR-labelled annexin respectively. The same software was used to analyse video sequenced images as described before with whole retinal monochrome images from each eye recorded and colourised. Dual-color images were produced by combining each of the grayscale images from the cSLO into the red (PI), and green (IR annexin) of an RGB color image.
The left eye of each animal was treated with intravitreal 0.40 nmol MK801 at the same time as Abeta. Wide-angle retinal images were recorded 2 hours following intravitreal annexin (green) and PI (red), as previously described (Guo at al., 2006).
To assess the relative levels of early apoptosis, late apoptosis and necrosis the inventors studied the co-localization of PI and annexin V using ImageJ software with the Intensity Correlation Analysis plugin (Li et al., 2004). Colour and raw scatter plots of annexin and PI fluorescence intensity were constructed from plugin-generated data for each animal. Corresponding scatter plots (blue) from the eyes shown in FIG. 8a-b are illustrated in FIG. 8c-d. The data were analysed in a similar manner to data derived by in vitro FACS analysis, with four quadrants (midlines shaded in colour overlay as red, green, blue and yellow) enabling separation of the different phases of cell death as annexin V positive (early apoptosis, green), annexin V and PI double positive (late apoptosis, yellow) and PI positive (necrosis, red). Thresholds were set automatically by the plugin for each analysis of each eye. The inventors then used fluorescence intensity counts from the raw scatter plots to quantify each phase of cell death.
To further assess the analytical power of the technique, the inventors next investigated whether the level of oxidative stress in Abeta-treated eyes influenced the phase of cell death and whether this was possible to visualize in vivo. […] FIG. 8f-g are taken from the right untreated (F) and left PMA-treated (G) eye of an animal treated 72 hours previously with 3.40 nmol Aβ25-35. […]

[16] = tested on: calcium signal in the retina; assay: Calcium transients in calcium transgenic mouse eye (FCIPs) in vivo; conditions: intravitreal; vs baseline
Source text: FIG. 13C Calcium transgenic mice with genetically-encoded fluorescent Ca2+ indicator proteins (FCIPs) were imaged in vivo. Aβ25-35-induced calcium transients in a calcium transgenic mouse eye. […] Analysis of the fluorescent signal after Aβ injection at t=o, is shown graphically with fluorescence seen in the areas Identified by coloured boxes in inset (D,E).

[17] = tested on: calcium signals in the retina; assay: Calcium signals in vivo in a mouse eye, Fura red; conditions: ten minutes after 5 nmol; vs pre-treatment, p<0.001
Source text: FIG. 13B. The effects of Aβ25-35 on calcium signals in vivo in a mouse eye. […] Ten minutes after Aβ25-35 (5 nmol) application (as shown D) however, a stronger fluorescent signal was detected in the RGCL (C).

[18] = tested on: RGC; conditions: previously established; cited from earlier work; remark: listed apart in the source

C[C@]12CC[C@@H]3c4ccc(O)cc4CC[C@H]3[C@@H]1CC[C@@H]2O [17β-estradiol]
neuronal integrity and function [1]: increased

Brc1c(NC2=NCCN2)ccc2nccnc12 [Brimonidine]
visual field deterioration [2]: reduced | RGC survival [3]: positive effect

COC1=C(OC)C(=O)C(C/C=C(\C)CC/C=C(\C)CC/C=C(\C)CC/C=C(\C)CC/C=C(\C)CC/C=C(\C)CC/C=C(\C)CC/C=C(\C)CC/C=C(\C)CCC=C(C)C)=C(C)C1=O [CoQ10, Ubiquinone]
RGC apoptosis [4]: significantly reduced | Cyclophilin D (CyD) in retina, histological grading ([5]; 3 weeks after induction of OHT): increased; also recorded: significant increase | Cyclophilin D (CyD) in retina, histological grading ([5]; 12 weeks after elevated IOP): not at 12 weeks | neuroprotection [6]: highly effective

CCCCCCCCCCCCCCCCCCN1C(=CC=CC2=[N+](CCCCCCCCCCCCCCCCCC)c3ccccc3C2(C)C)C(C)(C)c2ccccc21.[O-][Cl+3]([O-])([O-])[O-] [DiI, 1,1′-dioctadecyl-3,3,3′,3′-tetramethylindocarbocyanine perchlorate]
cell viability, development or basic cellular physiological properties [7]: does not affect

N#CC(C#N)=NNc1ccc(OC(F)(F)F)cc1 [FCCP, Carbonylcyanide-p-trifluoromethoxy-phenylhydrazone]
real time autofluorescence in the retina [8]: increase

C=C(C)[C@H]1Cc2c(ccc3c2O[C@@H]2COc4cc(OC)c(OC)cc4[C@@H]2C3=O)O1 [Rotenone]
ROS production in the retina (DHE fluorescence) [9]: stronger fluorescent signals of ROS production | ROS production (MitoSox) [10]: significant increase | mitochondrial membrane depolarization (Rho123 signal) ([11]; intravitreal 20 uM, 1 ul, vs vehicle control): significant mitochondrial membrane depolarization

CN[C@@H]1C[C@H]2O[C@@](C)([C@@H]1OC)n1c3ccccc3c3c4c(c5c6ccccc6n2c5c31)C(=O)NC4 [SSP, staurosporine]
time point of maximal apoptosis [12]: 2 h | cell death profile (phases) at time of peak apoptosis ([13]; 2 h, co-localization scatter plot analysis): significantly more cells in the late phase of apoptosis; also recorded: significantly more RGCs in the phases of late apoptosis | PI staining over time ([13]; SSP-treated rat eye, time-lapse video over 5 hours): clear increase

N[C@@H](CCC(=O)O)C(=O)O [glutamate]
slow progressive mitochondrial depolarization in response to Aβ 25-35 [14]: abolished almost completely

Aβ25-35: amyloid beta peptide fragment 25-35 (Sigma-Aldrich), induces RGC apoptosis (GSNKGAIIGLM; Amyloid-beta protein 42; UniProt P05067 696-706, looked up, fragment)
cell death profile (phases) at time of peak apoptosis ([15]; 72 h, co-localization scatter plot analysis, listed as Abeta): significantly more cells in the late phase of apoptosis; also recorded: significantly more RGCs in the phases of late apoptosis | RGC death ([15]; 72 hours after intravitreal administration of 3.40 nmol): Significant RGC death | ROS production in the retina (DHE fluorescence) [9]: significant increase of ROS production | fluorescent calcium signal in the retina [16]: immediate fluorescent calcium signal | MMP in the retina (Rho123) ([11]; vs baseline, few minutes delay, p<0.01): significant loss | calcium signals in the retina (Fura red) [17]: significant increase | time point of maximal apoptosis [18]: 72 h
